From the NIST ThermoML archive (doi:10.1016/j.tca.2012.01.013)

Assays:
[1] = refractive index (Na D-line) (dimensionless); xn = mol fraction of the nth substance listed; details: 101 kPa, Liquid, Standard Abbe refractometry
[2] = xn = mol fraction of the nth substance listed; details: 101 kPa, Liquid, Vibrating tube method

COC(=O)CCCCC(=O)OC [dimethyl 1,6-hexanedioate] + CCC(C)=O
Details	mass density, [2] [kg/m3]	refractive index, [1]
288.15 K, x1 = 0.1002	855.132	1.3909
288.15 K, x1 = 0.2002	893.327	1.39827
288.15 K, x1 = 0.3002	926.063	1.40453
288.15 K, x1 = 0.4004	954.409	1.40995
288.15 K, x1 = 0.5001	979.016	1.41452
288.15 K, x1 = 0.5999	1000.72	1.41853
288.15 K, x1 = 0.6998	1020.03	1.42204
288.15 K, x1 = 0.7994	1037.28	1.42515
288.15 K, x1 = 0.8997	1052.86	1.42797
288.15 K, x1 = 1	1066.79	1.4305
293.15 K, x1 = 0.1002	849.982	1.38847
293.15 K, x1 = 0.2002	888.227	1.39586
293.15 K, x1 = 0.3002	921.006	1.40221
293.15 K, x1 = 0.4004	949.39	1.40768
293.15 K, x1 = 0.5001	974.03	1.41229
293.15 K, x1 = 0.5999	995.763	1.41634
293.15 K, x1 = 0.6998	1015.1	1.41989
293.15 K, x1 = 0.7994	1032.37	1.42303
293.15 K, x1 = 0.8997	1047.98	1.42587
293.15 K, x1 = 1	1061.93	1.42842
298.15 K, x1 = 0.1002	844.812	1.38601
298.15 K, x1 = 0.2002	883.111	1.39346
298.15 K, x1 = 0.3002	915.937	1.39988
298.15 K, x1 = 0.4004	944.361	1.4054
298.15 K, x1 = 0.5001	969.035	1.41005
298.15 K, x1 = 0.5999	990.798	1.41416
298.15 K, x1 = 0.6998	1010.17	1.41774
298.15 K, x1 = 0.7994	1027.45	1.42091
298.15 K, x1 = 0.8997	1043.08	1.42378
298.15 K, x1 = 1	1057.06	1.42636
303.15 K, x1 = 0.1002	839.62	1.38348
303.15 K, x1 = 0.2002	877.976	1.39104
303.15 K, x1 = 0.3002	910.852	1.39751
303.15 K, x1 = 0.4004	939.32	1.4031
303.15 K, x1 = 0.5001	964.032	1.4078
303.15 K, x1 = 0.5999	985.828	1.41196
303.15 K, x1 = 0.6998	1005.23	1.41557
303.15 K, x1 = 0.7994	1022.54	1.41878
303.15 K, x1 = 0.8997	1038.19	1.42168
303.15 K, x1 = 1	1052.18	1.42429
308.15 K, x1 = 0.1002	834.401	1.38097
308.15 K, x1 = 0.2002	872.82	1.38859
308.15 K, x1 = 0.3002	905.75	1.39515
308.15 K, x1 = 0.4004	934.263	1.40079
308.15 K, x1 = 0.5001	959.015	1.40555
308.15 K, x1 = 0.5999	980.845	1.40974
308.15 K, x1 = 0.6998	1000.27	1.41341
308.15 K, x1 = 0.7994	1017.61	1.41667
308.15 K, x1 = 0.8997	1033.29	1.41961
308.15 K, x1 = 1	1047.31	1.42222
313.15 K, x1 = 0.1002	829.151	1.37832
313.15 K, x1 = 0.2002	867.64	1.38611
313.15 K, x1 = 0.3002	900.629	1.39277
313.15 K, x1 = 0.4004	929.193	1.39848
313.15 K, x1 = 0.5001	953.987	1.4033
313.15 K, x1 = 0.5999	975.853	1.40756
313.15 K, x1 = 0.6998	995.312	1.41126
313.15 K, x1 = 0.7994	1012.68	1.41455
313.15 K, x1 = 0.8997	1028.38	1.41751
313.15 K, x1 = 1	1042.43	1.42017
318.15 K, x1 = 0.1002	823.875	1.37568
318.15 K, x1 = 0.2002	862.438	1.38355
318.15 K, x1 = 0.3002	895.489	1.39031
318.15 K, x1 = 0.4004	924.104	1.39611
318.15 K, x1 = 0.5001	948.941	1.401
318.15 K, x1 = 0.5999	970.845	1.40532
318.15 K, x1 = 0.6998	990.336	1.40909
318.15 K, x1 = 0.7994	1007.74	1.41243
318.15 K, x1 = 0.8997	1023.47	1.41544
318.15 K, x1 = 1	1037.54	1.41819
323.15 K, x1 = 0.1002	818.564	1.37305
323.15 K, x1 = 0.2002	857.21	1.38103
323.15 K, x1 = 0.3002	890.33	1.38784
323.15 K, x1 = 0.4004	919.003	1.39374
323.15 K, x1 = 0.5001	943.887	1.39869
323.15 K, x1 = 0.5999	965.832	1.40307
323.15 K, x1 = 0.6998	985.36	1.40691
323.15 K, x1 = 0.7994	1002.79	1.4103
323.15 K, x1 = 0.8997	1018.55	1.41336
323.15 K, x1 = 1	1032.64	1.41614

COC(=O)CCCCC(=O)OC [dimethyl 1,6-hexanedioate] + CCCCO
Details	mass density, [2] [kg/m3]	refractive index, [1]
288.15 K, x1 = 0.0999	854.546	1.40584
288.15 K, x1 = 0.2004	890.617	1.40986
288.15 K, x1 = 0.2999	921.957	1.41343
288.15 K, x1 = 0.4003	949.859	1.41668
288.15 K, x1 = 0.4999	974.548	1.41965
288.15 K, x1 = 0.6007	996.907	1.42221
288.15 K, x1 = 0.6996	1016.65	1.42454
288.15 K, x1 = 0.7994	1034.84	1.4267
288.15 K, x1 = 0.8991	1051.42	1.42867
288.15 K, x1 = 1	1066.79	1.4305
293.15 K, x1 = 0.0999	850.5	1.40378
293.15 K, x1 = 0.2004	886.373	1.40776
293.15 K, x1 = 0.2999	917.562	1.41135
293.15 K, x1 = 0.4003	945.34	1.41458
293.15 K, x1 = 0.4999	969.9	1.41754
293.15 K, x1 = 0.6007	992.211	1.4201
293.15 K, x1 = 0.6996	1011.89	1.42243
293.15 K, x1 = 0.7994	1030.03	1.4246
293.15 K, x1 = 0.8991	1046.58	1.42658
293.15 K, x1 = 1	1061.93	1.42842
298.15 K, x1 = 0.0999	846.433	1.40169
298.15 K, x1 = 0.2004	882.112	1.40568
298.15 K, x1 = 0.2999	913.148	1.40925
298.15 K, x1 = 0.4003	940.805	1.41247
298.15 K, x1 = 0.4999	965.3	1.41541
298.15 K, x1 = 0.6007	987.507	1.418
298.15 K, x1 = 0.6996	1007.13	1.42033
298.15 K, x1 = 0.7994	1025.22	1.4225
298.15 K, x1 = 0.8991	1041.74	1.42451
298.15 K, x1 = 1	1057.06	1.42636
303.15 K, x1 = 0.0999	842.341	1.39959
303.15 K, x1 = 0.2004	877.825	1.40356
303.15 K, x1 = 0.2999	908.714	1.40713
303.15 K, x1 = 0.4003	936.253	1.41033
303.15 K, x1 = 0.4999	960.66	1.41329
303.15 K, x1 = 0.6007	982.791	1.41588
303.15 K, x1 = 0.6996	1002.36	1.41823
303.15 K, x1 = 0.7994	1020.41	1.42042
303.15 K, x1 = 0.8991	1036.89	1.42242
303.15 K, x1 = 1	1052.18	1.42429
308.15 K, x1 = 0.0999	838.219	1.39746
308.15 K, x1 = 0.2004	873.513	1.40144
308.15 K, x1 = 0.2999	904.259	1.40498
308.15 K, x1 = 0.4003	931.684	1.4082
308.15 K, x1 = 0.4999	955.998	1.41109
308.15 K, x1 = 0.6007	978.06	1.41376
308.15 K, x1 = 0.6996	997.573	1.41612
308.15 K, x1 = 0.7994	1015.59	1.41832
308.15 K, x1 = 0.8991	1032.04	1.42035
308.15 K, x1 = 1	1047.31	1.42222
313.15 K, x1 = 0.0999	834.066	1.39533
313.15 K, x1 = 0.2004	869.172	1.3993
313.15 K, x1 = 0.2999	899.775	1.40285
313.15 K, x1 = 0.4003	927.091	1.40603
313.15 K, x1 = 0.4999	951.32	1.40901
313.15 K, x1 = 0.6007	973.316	1.41163
313.15 K, x1 = 0.6996	992.781	1.41402
313.15 K, x1 = 0.7994	1010.76	1.41623
313.15 K, x1 = 0.8991	1027.18	1.41828
313.15 K, x1 = 1	1042.43	1.42017
318.15 K, x1 = 0.0999	829.874	1.39323
318.15 K, x1 = 0.2004	864.799	1.39716
318.15 K, x1 = 0.2999	895.264	1.40072
318.15 K, x1 = 0.4003	922.473	1.40393
318.15 K, x1 = 0.4999	946.622	1.40688
318.15 K, x1 = 0.6007	968.555	1.40952
318.15 K, x1 = 0.6996	987.974	1.4119
318.15 K, x1 = 0.7994	1005.91	1.41415
318.15 K, x1 = 0.8991	1022.31	1.41622
318.15 K, x1 = 1	1037.54	1.41819
323.15 K, x1 = 0.0999	825.64	1.39109
323.15 K, x1 = 0.2004	860.391	1.39505
323.15 K, x1 = 0.2999	890.725	1.39859
323.15 K, x1 = 0.4003	917.832	1.40177
323.15 K, x1 = 0.4999	941.902	1.40473
323.15 K, x1 = 0.6007	963.778	1.4074
323.15 K, x1 = 0.6996	983.155	1.40981
323.15 K, x1 = 0.7994	1001.06	1.41207
323.15 K, x1 = 0.8991	1017.44	1.41416
323.15 K, x1 = 1	1032.64	1.41614
